Measured values from PMC5111122, “Peptides at the Interface: Self-Assembly of Amphiphilic Designer Peptides and Their Membrane Interaction Propensity” (Biomacromolecules, 2016).

How the values were obtained:
[1] = not given; remark: listed apart in the source
[2] = Differential scanning calorimetry (DSC) on DPPC MLVs; conditions: as evidenced by DSC, EPR, and SAXS
Procedure: DPPC was dissolved in chloroform/methanol (2:1 v/v), mixed, and organic solvents were evaporated under a gentle stream of nitrogen, followed by drying under a vacuum overnight in order to completely remove residual organic solvents. The dry lipid-film was hydrated either by adding double-distilled water (reference) or by adding aqueous solutions of the peptides to finally obtain four different molar ratios: 50:1, 25:1, 10:1, and 5:1 DPPC/peptide (mol/mol). These ratios correspond to peptide concentrations of 1.1, 2.2, 5.5, and 11 mM, respectively. The DPPC concentration was 55 mM. The samples were incubated above the lipid’s phase transition temperature at 50 °C for 2 h, intermitted by vigorous vortexing every 15 min.
DPPC MLVs in the presence and absence of peptides were prepared as described above, incubated for 24 h at room temperature (gently rotating), and diluted with double-distilled water to 2.75 mM DPPC prior to measurements to fit the optimal concentration regime for DSC. Measurements were performed on a Microcal VP-DSC differential scanning calorimeter (Northampton, MA, USA). Scans were recorded at a constant scan rate of 0.5 °C/min from 10 to 80 °C. […] The sharpness of the transition was described by the full width at half-maximum (ΔT1/2), and calorimetric enthalpies (ΔH) were calculated by integrating the peak areas.

[3] = Determination of the critical aggregation concentration (CAC), DPH fluorescence assay; assay type: physicochemical; conditions: excitation 359 nm, emission 428 nm, peptide in double-distilled water cleared with NaOH, aged 1 week, intersection of two fitted straight lines
Procedure: (§1) Lyophilized peptides were dissolved in double-distilled water. NaOH (1 or 0.1 M) was added stepwise until the samples appeared as clear, colorless solutions. Stock solutions (50 mM) were then diluted with double-distilled water to obtain the desired concentrations. All samples were aged for 1 week under an argon atmosphere prior to fluorescence, SAXS, TEM, and attenuated total reflection Fourier transform infrared (ATR-FTIR) spectroscopy measurements.
A 4 μL portion of DPH in methanol (10 μM) was added to 50 μL of peptide solution of varying concentrations. All fluorescence spectra were recorded under identical conditions on a CLARIOstar microplate reader (BMG LABTECH, Ortenberg, Germany) with an excitation wavelength of 359 nm. Fluorescence emission was recorded at 428 nm. Samples were background corrected and normalized to the highest intensity readout. DPH is almost nonfluorescent in aqueous solutions and in the presence of randomly oriented peptide monomers. As soon as oriented structures are formed, a sharp increase in fluorescence intensity is observed. The CAC of the peptide is defined as the intersection point of two straight lines, fitting the low intensity region and the region with linearly increasing intensity.[18]

[4] = TEM of peptide assemblies (negative staining, cryo); assay type: physicochemical
Procedure: as §1
Solutions of A6YD and V4WD2 (11 mM) were incubated for 1 week prior to TEM measurements. Samples were adsorbed onto a glow-discharged carbon-coated copper grid and allowed to settle for 1 min. Excess fluid was carefully removed with filter paper and immediately replaced by 5 μL of a 2% (w/v) uranyl acetate staining solution, which was centrifuged for 6 min at 10000 rpm prior to usage in order to precipitate potentially present aggregates. The uranyl acetate solution was allowed to settle for 30 s, blotted, and replaced by another 5 μL of fresh solution. After 30 s of incubation, the staining solution was removed and the sample was air-dried. Visualization of the samples was achieved by using a Fei Tecnai G^2 20 transmission electron microscope (Eindhoven, The Netherlands) operating at an acceleration voltage of 120 kV. Digital images were made using a Gatan US1000 CCD camera at 2K × 2K resolution.

Ac-AAAAAAYD-OH
peptide fiber diameter in presence of LDL: 10 nm
hard sphere radius (Rs) [1]: 2.6 nm

Ac-AAAAAAYK-NH2 [A6YK]
interaction with DPPC MLVs [2]: no interaction
∼CAC (critical aggregation concentration) [3]: ~1 mM
diameter of supramolecular cylinders (TEM, both techniques) ([4]; above the CAC, Fig. S11): 4- 12 nm
fiber diameter, cryo-TEM ([4]; cryogenic conditions): 8–12 nm
nanofiber diameter, negative-staining TEM ([4]; negative staining with 2% uranyl acetate, peptide aged 1 week): 4–10 nm
